Data on one compound can be found in US20230310352A1, “NOVEL COMPOSITIONS AND METHODS FOR THE TREATMENT OF LUNG FIBROSIS” (LAURENT PHARMACEUTICALS INC., priority 2020, published 2023).

Entries after “also recorded” stand apart in the source; their conditions may differ.

Assay [1] has as its system Normal human lung fibroblast cells (NHLF cells, ATCC CRL-7000). Put plainly: α-SMA protein by ELISA after TGF-β1 exposure in NHLF. The format is cell-based. To be noted: TGF-β1 2 ng/mL + fenretinide 1, 2, 3, 4 μM, 3 days. The method, then:
(§1) NHLF cells were incubated for 3 days at 37° C. and treated with TGF-β1 (2 ng/mL) or TGF-β1 (2 ng/mL)+fenretinide (1, 2, 3, 4 μM). At the end of the 3 day-treatment period, media was collected in identified tubes, centrifuged at 2,000×g for 20 minutes and stored at −80° C. Cells were collected using trypsin, transferred in identified tubes and centrifuged at 1,000×g for 5 minutes. Cells were then washed twice in phosphate buffered saline (PBS) 1X prior to be resuspended in ELISA lysis buffer. α-SMA protein contents were determined using Abcam ELISA detection kit (Ab240678). The experiment was performed in quadruplicate.

For assay [2], the system named is VEGF. Put plainly: Mouse model of LPS-induced acute respiratory distress syndrome, BALF VEGF. The format is in vivo. To be noted: inhaled fenretinide, LPS-induced ARDS mouse model.
Assay [3] deals with bleomycin-induced lung fibrosis. Put plainly: Intratracheal bleomycin mouse model of pulmonary fibrosis (21-day model). Format: in vivo, C57BL/6N mice. Particulars: Day 21, oral once daily for 14 days. The method, then: Oral administration of a solid amorphous dispersion formulation of fenretinide (LAU-7b SDI) was evaluated in treating and/or reducing pulmonary fibrosis in mouse model of lung fibrosis induced via a single intratracheal administration of bleomycin followed by vehicle, fenretinide (LAU-7b SDI) or pirfenidone oral treatment for 21 days. The LAU-7b SDI formulation was obtained by spray drying and contains fenretinide in amorphous form in a solid dispersion comprising a matrix polymer, based on the following formula: 40% fenretinide, 59.6% povidone (KOLLIDON® 30), 0.24% butylated hydroxyanisole (BHA) and 0.16% butylated hydroxytoluene (BHT).
Male C57BL/6N mice from Charles River Laboratories, 10-12 weeks of age, weighing around 20-25 g, at the time of their enrolment, received 50 μL of bleomycin sulfate (2.0 mg/kg) by a single intratracheal instillation on Day 1 of the study. The Sham group received an equivalent volume of 0.9% saline. On Day 7 post-bleomycin instillation the animals were randomized in groups of 8 animals based on their body weight loss and Penh value. Oral dosing by gavage (10 mL/kg) with the vehicle (sham and BLM Control groups), LAU-7b SDI (fenretinide at 5 mg/kg and 10 mg/kg dose), and the reference compound (pirfenidone 100 mg/kg) were initiated once daily starting from Day 7 to Day 21. Two hours following the last dose on Day 21 all the mice were sacrificed, the lungs of each mouse were harvested, flushed with 0.9% NaCl and inflated with 10% neutral buffered formalin solution. After embedding and mounting of the lung tissue (transversal slices of 5 μm thickness), the histology slides were stained with hematoxylin/eosin for the Ashcroft score evaluation by a treatment-blinded pathologist, and with Sirius red staining for automated fibrosis quantification (Biocellvia, France).
As in Example 4, the key endpoints evaluated in this study were the Ashcroft score, pulmonary foci and collagen content obtained by histological assessment of the lung tissue at the end of the study. Statistical analysis was made on normally distributed data by one-way ANOVA followed by multiple comparisons (Fisher's LSD post hoc test) to assess the difference between the groups, using Graph Pad Prism Software version 8.0 (San Diego, CA, USA). Differences were considered statistically significant when P values were p<0.05 (*), or p<0.01 (**) or p<0.001 (***). The Ashcroft score was assessed in the lung tissue by treatment-blinded pathologist on the H&E stained histology slides (2 cross sections/animal) and using the modified Ashcroft scale. Briefly, each lung section was scanned at a magnification of ×100 (H&E staining), and graded from 0 (normal lung) to 8 (total fibrotic obliteration of the field). The mean value of the grades obtained for each of the two sections was used as the Ashcroft score.
Pulmonary foci (fibrotic tissue) and lung collagen content were quantified in the Sirius red stained lung tissue histology sections by high resolution, automated digital image analysis (Biocellvia, France) on Day 21 after lung fibrosis induction by bleomycin (BLM) instillation and following a 14-day oral gavage treatment with LAU-7b SDI (fenretinide, two doses), pirfenidone (reference drug) or vehicle only. Full field analysis of 2 lung sections per animal was conducted and the results were expressed as a mean percentage of total surface. This test is considered highly reliable, offering reproducible and observer-independent assessment of quantitative analysis of fibrosis.

In assay [4] the test system is Normal human lung fibroblast cells (NHLF cells, ATCC CRL-7000). Put plainly: Pro-collagen 1A1 protein by ELISA after TGF-β1 exposure in NHLF. To be noted: TGF-β1 2 ng/mL + fenretinide 1, 2, 3, 4 μM, 3 days. Format: cell-based. The method, then: as §1, with “ng/mL)+Fenretinide” for “ng/mL)+fenretinide”, “2,000 g” for “2,000×g”, “1,000 g” for “1,000×g”, “PBS” for “phosphate buffered saline (PBS)”, “Pro-collagen 1A1” for “α-SMA”, “(Ab210966). Experiment” for “(Ab240678). The experiment was”
On the technique in general: In an ELISA, binding on a coated surface is turned into a signal by an enzyme label.

The mark [5] stands for this setting: fenretinide 5 mg/kg (as LAU-7b SDI).
The mark [6] stands for this setting: fenretinide 10 mg/kg (as LAU-7b SDI), pirfenidone 100 mg/kg.

In the case of `CC1=C(/C=C/C(C)=C/C=C/C(C)=C/C(=O)Nc2ccc(O)cc2)C(C)(C)CCC1` [fenretinide, 4-hydroxyphenyl retinamide], in assay [1], the “induction of fibrotic marker α-SMA protein levels (ELISA)” value is on record as “attenuate and, at certain doses, completely abolish; also recorded: attenuates in a dose-dependent manner; also recorded: dose-dependent attenuation”. Moreover, the “bronchoalveolar lavage fluid (BALF) VEGF” value in assay [2] is listed as “significant increase”. Moreover, in assay [3] (setting [5]), the “Ashcroft score vs BLM control” value is on record as “also reduced”; the “percentage of collagen content, automated Sirius red analysis, vs BLM control” value was “did not induce statistically significant reduction”; the “percentage of pulmonary foci, automated Sirius red analysis, vs BLM control” value is given as “did not induce statistically significant reduction”. Besides, in assay [3] (setting [6]), the “Ashcroft score vs BLM control” value is recorded as “reduced significantly”; the “percentage of collagen content, automated Sirius red analysis, vs BLM control” value is “reduced significantly (p<0.05)”; the “percentage of pulmonary foci, automated Sirius red analysis, vs BLM control” value is “reduced significantly (p<0.05)”. For the same compound, the “induction of Pro-collagen 1A1 protein levels (ELISA)” value in assay [4] is “attenuate and, at certain doses, completely abolish; also recorded: dose-dependent attenuation”. For the same compound, in assay [4] (listed as Fenretinide), the “induction of Pro-collagen 1A1 protein levels (ELISA)” value is given as “dose-dependent attenuation”.
